Measured values reported in ChEMBL document CHEMBL1153662, “Synthesis and antiviral activity of alkylphosphonic acid derivatives of oxetanocin-A” (Bioorg Med Chem Lett, 1994).

Experiments:
Format in all cases: functional, cell-based
[1] = test system: MT4; experiment: In vitro […] against HIV-1 in MT-4 cells by indirect an immunofluorescence assay at concentration up to 100 ug/mL; devoid of activity; conditions: Homo sapiens
[2] = test system: Vero; experiment: In vitro antiviral activity against HSV-1 in vero cells by a plaque reduction assay at concentration up to 10 ug/mL; devoid of activity; conditions: Chlorocebus sabaeus
[3] = test system: Vero; experiment: In vitro antiviral activity against HSV-2 in vero cells by a plaque reduction assay at concentration up to 10 ug/mL; devoid of activity; conditions: Chlorocebus sabaeus

Measured: Activity

Nc1ncnc2c1ncn2C1OC(CCCP(=O)(O)O)C1CO (configuration not stated)
devoid of activity: all assays above

Nc1ncnc2c1ncn2C1OC(C(O)P(=O)(O)O)C1CO (configuration not stated)
devoid of activity: all assays above

Nc1ncnc2c1ncn2C1OC(/C=C/P(=O)(O)O)C1CO (configuration not stated)
devoid of activity: all assays above

Nc1ncnc2c1ncn2C1OC(CCP(=O)(O)O)C1CO (configuration not stated)
devoid of activity: all assays above
